Assay results: ChEMBL document CHEMBL3585305, “Structure-Based Design and Optimization of Multitarget-Directed 2H-Chromen-2-one Derivatives as Potent Inhibitors of Monoamine Oxidase B and Cholinesterases” (J Med Chem, 2015)

Legend:
Acetylcholinesterase [1] = target: Acetylcholinesterase (Homo sapiens, UniProt P22303); assay: Inhibition of human recombinant AChE by spectrophotometric Ellman's method
[2] = target: T1, Amine oxidase [flavin-containing] A (Rattus norvegicus, UniProt P21396); assay: Inhibition of rat brain MAO-A using kynuramine substrate […] by spectrophotometric assay
T1 sequence (P21396 whole entry): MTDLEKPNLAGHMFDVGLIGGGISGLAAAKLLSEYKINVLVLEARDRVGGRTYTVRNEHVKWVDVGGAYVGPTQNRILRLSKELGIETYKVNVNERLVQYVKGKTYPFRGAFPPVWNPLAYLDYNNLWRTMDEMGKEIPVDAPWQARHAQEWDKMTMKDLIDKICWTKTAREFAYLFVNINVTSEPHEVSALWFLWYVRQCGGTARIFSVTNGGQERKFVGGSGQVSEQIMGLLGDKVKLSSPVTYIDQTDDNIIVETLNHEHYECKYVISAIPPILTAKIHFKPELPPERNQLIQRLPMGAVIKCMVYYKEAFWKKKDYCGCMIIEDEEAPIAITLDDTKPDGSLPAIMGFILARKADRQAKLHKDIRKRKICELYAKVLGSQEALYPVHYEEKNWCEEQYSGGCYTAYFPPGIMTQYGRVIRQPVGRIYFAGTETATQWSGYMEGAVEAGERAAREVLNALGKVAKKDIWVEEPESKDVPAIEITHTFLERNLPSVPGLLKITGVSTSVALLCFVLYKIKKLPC

[3] = target: T2, Amine oxidase [flavin-containing] B (Homo sapiens, UniProt P27338)
T2 sequence (P27338 whole entry): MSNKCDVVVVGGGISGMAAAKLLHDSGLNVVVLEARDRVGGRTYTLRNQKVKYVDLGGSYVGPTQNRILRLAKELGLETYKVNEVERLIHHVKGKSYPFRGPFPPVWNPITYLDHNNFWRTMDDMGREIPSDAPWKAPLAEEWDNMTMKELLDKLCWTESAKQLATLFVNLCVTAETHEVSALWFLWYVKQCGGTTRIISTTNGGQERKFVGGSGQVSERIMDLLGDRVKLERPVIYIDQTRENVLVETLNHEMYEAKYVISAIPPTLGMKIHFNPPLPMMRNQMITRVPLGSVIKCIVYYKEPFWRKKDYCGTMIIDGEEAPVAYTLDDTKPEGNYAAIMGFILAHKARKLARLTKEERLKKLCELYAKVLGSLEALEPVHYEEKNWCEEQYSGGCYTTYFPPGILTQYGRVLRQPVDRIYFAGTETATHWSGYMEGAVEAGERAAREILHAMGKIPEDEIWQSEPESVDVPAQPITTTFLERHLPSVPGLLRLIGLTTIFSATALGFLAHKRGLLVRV
Description: Inhibition of human recombinant MAO-B using kynuramine substrate by spectrophotometric assay

Acetylcholinesterase [4] = target: Acetylcholinesterase (Electrophorus electricus, UniProt O42275); assay: Inhibition of electric eel AChE by spectrophotometric Ellman's method
[5] = target: T3, Amine oxidase [flavin-containing] B (Rattus norvegicus, UniProt P19643); assay: Inhibition of rat brain MAO-B using kynuramine substrate […] by spectrophotometric assay
T3 sequence (P19643 whole entry): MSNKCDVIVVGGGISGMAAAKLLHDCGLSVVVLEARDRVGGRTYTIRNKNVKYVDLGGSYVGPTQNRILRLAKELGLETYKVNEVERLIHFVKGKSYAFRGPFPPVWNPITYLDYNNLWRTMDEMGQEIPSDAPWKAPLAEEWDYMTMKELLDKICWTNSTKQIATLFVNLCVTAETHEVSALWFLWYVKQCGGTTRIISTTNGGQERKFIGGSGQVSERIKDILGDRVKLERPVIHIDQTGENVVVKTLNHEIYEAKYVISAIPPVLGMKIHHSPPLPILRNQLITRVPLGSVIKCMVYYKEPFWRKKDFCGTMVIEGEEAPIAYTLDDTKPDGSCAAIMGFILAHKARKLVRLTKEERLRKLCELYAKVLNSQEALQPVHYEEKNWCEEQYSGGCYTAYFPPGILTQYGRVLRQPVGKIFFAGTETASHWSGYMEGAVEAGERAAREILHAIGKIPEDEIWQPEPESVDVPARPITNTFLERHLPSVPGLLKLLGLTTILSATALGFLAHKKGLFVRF

[6] = target: T4, Amine oxidase [flavin-containing] A (Homo sapiens, UniProt P21397); assay: Inhibition of human recombinant MAO-A using kynuramine substrate by spectrophotometric assay
T4 sequence (P21397 whole entry): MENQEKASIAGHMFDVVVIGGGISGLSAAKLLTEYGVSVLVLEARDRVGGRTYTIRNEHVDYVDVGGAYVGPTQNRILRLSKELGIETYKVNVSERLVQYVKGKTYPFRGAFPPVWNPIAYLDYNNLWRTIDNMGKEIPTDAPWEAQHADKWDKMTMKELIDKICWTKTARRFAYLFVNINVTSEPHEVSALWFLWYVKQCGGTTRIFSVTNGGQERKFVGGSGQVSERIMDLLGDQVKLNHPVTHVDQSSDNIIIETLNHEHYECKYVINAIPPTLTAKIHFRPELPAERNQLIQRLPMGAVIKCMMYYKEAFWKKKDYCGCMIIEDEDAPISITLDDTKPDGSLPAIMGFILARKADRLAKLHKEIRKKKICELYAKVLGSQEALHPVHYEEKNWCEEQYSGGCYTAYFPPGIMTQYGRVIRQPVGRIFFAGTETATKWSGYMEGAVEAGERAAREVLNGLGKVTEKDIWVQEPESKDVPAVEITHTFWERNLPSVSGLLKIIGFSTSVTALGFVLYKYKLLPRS

Cholinesterase = Cholinesterase (Equus caballus, UniProt P81908); assay: Inhibition of equine serum BuChE by spectrophotometric Ellman's method
[7] = target: T1, Amine oxidase [flavin-containing] A; assay: Inhibition of rat brain MAO-A using kynuramine substrate […] at 10 uM by spectrophotometric assay
[8] = target: Cholinesterase (Equus caballus) (UniProt P81908); assay: Inhibition of equine serum BuChE at 10 uM by spectrophotometric Ellman's method
[9] = target: T4, Amine oxidase [flavin-containing] A; assay: Inhibition of human recombinant MAO-A using kynuramine substrate at 10 uM by spectrophotometric assay
[10] = target: T3, Amine oxidase [flavin-containing] B; assay: Inhibition of rat brain MAO-B using kynuramine substrate […] at 10 uM by spectrophotometric assay

Cholinesterase (Equus caballus), sequence (P81908 whole entry): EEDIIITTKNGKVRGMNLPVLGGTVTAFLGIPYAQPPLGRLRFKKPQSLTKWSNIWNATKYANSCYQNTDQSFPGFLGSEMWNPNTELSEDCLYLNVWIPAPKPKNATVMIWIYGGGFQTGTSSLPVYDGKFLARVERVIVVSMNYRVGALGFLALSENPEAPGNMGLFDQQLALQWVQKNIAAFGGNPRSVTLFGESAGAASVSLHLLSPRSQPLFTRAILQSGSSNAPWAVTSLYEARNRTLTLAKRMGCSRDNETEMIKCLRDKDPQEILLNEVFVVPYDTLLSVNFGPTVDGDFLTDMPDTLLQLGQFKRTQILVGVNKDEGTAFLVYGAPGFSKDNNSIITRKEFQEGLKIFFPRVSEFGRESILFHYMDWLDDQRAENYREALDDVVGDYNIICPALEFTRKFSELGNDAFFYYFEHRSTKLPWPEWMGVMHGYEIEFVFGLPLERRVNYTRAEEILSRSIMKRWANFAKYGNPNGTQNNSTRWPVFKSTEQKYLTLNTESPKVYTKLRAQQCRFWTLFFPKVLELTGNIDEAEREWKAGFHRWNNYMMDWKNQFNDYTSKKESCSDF
Cholinesterase, sequence (P81908 whole entry): as above
Acetylcholinesterase (Electrophorus electricus, UniProt O42275), sequence (O42275 whole entry): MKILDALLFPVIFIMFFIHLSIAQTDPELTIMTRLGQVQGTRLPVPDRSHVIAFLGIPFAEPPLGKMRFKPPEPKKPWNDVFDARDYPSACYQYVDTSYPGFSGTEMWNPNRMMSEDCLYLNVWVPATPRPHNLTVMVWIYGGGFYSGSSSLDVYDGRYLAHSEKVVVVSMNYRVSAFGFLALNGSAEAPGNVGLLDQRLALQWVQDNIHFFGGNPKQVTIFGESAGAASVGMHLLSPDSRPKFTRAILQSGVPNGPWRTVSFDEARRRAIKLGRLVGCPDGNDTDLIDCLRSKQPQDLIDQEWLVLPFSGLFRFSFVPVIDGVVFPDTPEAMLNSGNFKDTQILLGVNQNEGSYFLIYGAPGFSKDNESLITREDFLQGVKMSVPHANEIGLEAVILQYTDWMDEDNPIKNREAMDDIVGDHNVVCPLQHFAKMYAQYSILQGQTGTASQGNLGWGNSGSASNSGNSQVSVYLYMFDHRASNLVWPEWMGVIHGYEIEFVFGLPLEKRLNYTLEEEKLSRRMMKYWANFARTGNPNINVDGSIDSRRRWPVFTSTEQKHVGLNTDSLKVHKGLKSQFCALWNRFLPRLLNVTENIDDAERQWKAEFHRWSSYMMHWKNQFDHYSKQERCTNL
Acetylcholinesterase (Homo sapiens, UniProt P22303), sequence (P22303 whole entry): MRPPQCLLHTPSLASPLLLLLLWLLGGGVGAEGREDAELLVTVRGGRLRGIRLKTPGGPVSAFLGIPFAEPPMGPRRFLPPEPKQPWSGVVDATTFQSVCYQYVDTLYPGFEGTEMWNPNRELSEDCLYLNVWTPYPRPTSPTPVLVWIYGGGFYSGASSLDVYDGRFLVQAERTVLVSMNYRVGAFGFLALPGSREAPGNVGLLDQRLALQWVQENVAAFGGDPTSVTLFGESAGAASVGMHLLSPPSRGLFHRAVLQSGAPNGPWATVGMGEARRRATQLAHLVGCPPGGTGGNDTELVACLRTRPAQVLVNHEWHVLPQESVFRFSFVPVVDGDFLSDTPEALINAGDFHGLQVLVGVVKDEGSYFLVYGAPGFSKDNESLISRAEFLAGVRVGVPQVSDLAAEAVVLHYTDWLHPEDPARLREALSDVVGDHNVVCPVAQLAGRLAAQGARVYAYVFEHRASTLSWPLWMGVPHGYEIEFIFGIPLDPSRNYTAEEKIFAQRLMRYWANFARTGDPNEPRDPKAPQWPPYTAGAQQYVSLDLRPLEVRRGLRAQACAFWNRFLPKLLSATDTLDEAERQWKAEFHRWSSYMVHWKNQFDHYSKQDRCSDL

SMILES | IC50 (Acetylcholinesterase [1]) [nM] | IC50 [2] [nM] | IC50 [3] [nM] | IC50 (Acetylcholinesterase [4]) [nM] | IC50 [5] [nM] | IC50 [6] [nM] | IC50 (Cholinesterase) [nM] | inhibition at 10 µM [7] [%] | inhibition [8] [%] | inhibition at 10 µM [9] [%] | inhibition at 10 µM [10] [%]
Cc1c(C)c2ccc(OCCCCN(C)Cc3ccccc3)cc2oc1=O | 790 | 6600 | 96 | 490 | 1100 | 480 | 3700 |  |  |  | 
O=c1cc(CO)c2ccc(OCc3ccc(CNCc4ccccc4)cc3)cc2o1 |  |  |  | 440 | 530 |  | 570 | 19 |  |  | 
CN(Cc1cccc(C#N)c1)Cc1cccc(COc2ccc3ccc(=O)oc3c2)c1 |  |  |  | 4200 | 3700 |  | 2800 | 2 |  |  | 
CN(Cc1ccc(C#N)cc1)Cc1ccc(COc2ccc3c(CO)cc(=O)oc3c2)cc1 |  |  | 5.7 | 6300 | 35 | 4480 |  | 0 | 23 |  | 
Cc1c(C)c2ccc(OCCCCCN(C)Cc3ccc(C#N)cc3)cc2oc1=O |  |  |  | 2800 | 3300 |  | 4300 | 48 |  |  | 
CN(C)Cc1cccc(COc2ccc3ccc(=O)oc3c2)c1 |  | 10000 |  |  | 3200 |  | 5300 |  |  |  | 
CN(C)Cc1ccc(COc2ccc3ccc(=O)oc3c2)cc1 |  |  |  | 7100 | 3700 |  | 240 | 17 |  |  | 
CN(Cc1ccc(C#N)cc1)Cc1ccc(COc2ccc3ccc(=O)oc3c2)cc1 | 6000 |  | 45 | 5600 | 270 |  | 4400 | 6 |  | 0 | 
Cc1cc2ccc(OCc3ccc(CN(C)Cc4ccccc4)cc3)cc2oc1=O | 500 |  |  | 260 | 2400 |  | 1100 | 0 |  |  | 
CN(Cc1ccc(C#N)cc1)Cc1ccc(COc2ccc3cc(C#N)c(=O)oc3c2)cc1 |  |  |  |  | 990 |  |  | 0 | 14 |  | 
CCN(CCCOc1ccc2c(C)c(C)c(=O)oc2c1)Cc1ccccc1 |  | 7400 |  | 360 | 980 |  | 4000 |  |  |  | 
Cc1c(C)c2ccc(OCCCCCN(C)Cc3ccccc3)cc2oc1=O |  | 4200 |  | 550 | 980 |  | 2800 |  |  |  | 
Cc1c(C)c2ccc(OCCCCCN(C)Cc3cccc(C#N)c3)cc2oc1=O |  | 5300 |  | 2300 | 2500 |  | 4100 |  |  |  | 
CN(Cc1ccccc1)Cc1cccc(COc2ccc3ccc(=O)oc3c2)c1 |  |  |  | 2300 |  |  | 1000 |  |  |  | 
CN(Cc1ccc(COc2ccc3ccc(=O)oc3c2)cc1)Cc1cccc(C#N)c1 |  |  |  | 7400 | 2800 |  | 4100 | 5 |  |  | 
Cc1c(C)c2ccc(OCCCCCN(C)Cc3cccc(Cl)c3)cc2oc1=O |  |  |  | 290 | 8900 |  | 2600 | 42 |  |  | 
Cc1c(C)c2ccc(OCc3ccc(CN(C)Cc4ccc(C#N)cc4)cc3)cc2oc1=O | 3900 |  |  | 4200 |  |  |  |  | 18 |  | 
Cc1cc2ccc(OCc3ccc(CN(C)Cc4cccc(Cl)c4)cc3)cc2oc1=O |  |  |  | 1300 | 4500 |  |  | 0 | 29 |  | 

SMILES | IC50 (Acetylcholinesterase [1]) [nM] | IC50 [2] [nM] | IC50 [3] [nM] | IC50 (Acetylcholinesterase [4]) [nM] | IC50 [5] [nM] | IC50 [6] [nM] | IC50 (Cholinesterase) [nM] | inhibition at 10 µM [7] [%] | inhibition [8] [%] | inhibition at 10 µM [9] [%] | inhibition at 10 µM [10] [%]
CN(Cc1ccccc1)Cc1ccc(COc2ccc3ccc(=O)oc3c2)cc1 | 950 |  |  | 750 |  |  | 11000 |  |  |  | 
COc1cccc(CN(C)Cc2ccc(COc3ccc4ccc(=O)oc4c3)cc2)c1 |  |  |  | 4600 | 2900 |  | 1400 | 20 |  |  | 
CN(Cc1ccccc1)Cc1ccc(COc2ccc3cc(C#N)c(=O)oc3c2)cc1 |  |  |  | 200 |  |  | 5500 | 0 |  |  | 41
O=c1ccc2ccc(OCc3ccc(CCNCc4ccccc4)cc3)cc2o1 |  |  |  | 4700 |  |  | 640 |  |  |  | 
CCN(CC)Cc1ccc(COc2ccc3ccc(=O)oc3c2)cc1 |  |  |  | 2900 |  |  | 3400 | 9 |  |  | 44
Cc1cc(=O)oc2cc(OCc3ccc(CN(C)Cc4cccc(Cl)c4)cc3)ccc12 | 1000 |  |  | 120 | 5000 |  |  | 0 | 47 |  | 
Cc1cc(=O)oc2cc(OCc3ccc(CN(C)Cc4ccccc4)cc3)ccc12 | 910 |  |  | 180 | 4100 |  | 1000 | 10 |  |  | 
CCN(CC)Cc1cccc(COc2ccc3ccc(=O)oc3c2)c1 |  |  |  | 1700 |  |  | 6800 | 43 |  |  | 35
CN(CCc1ccc(COc2ccc3ccc(=O)oc3c2)cc1)Cc1ccccc1 |  |  |  | 850 |  |  | 520 |  |  |  | 
Cc1c(C)c2ccc(OCCCN(C)Cc3ccccc3)cc2oc1=O | 1000 |  | 134 | 1300 | 330 |  | 7800 | 35 |  | 17 | 
CN(Cc1cccc(Cl)c1)Cc1cccc(COc2ccc3ccc(=O)oc3c2)c1 |  |  |  | 5700 | 3400 |  | 310 | 17 |  |  | 
CCN(CCCCCOc1ccc2c(C)c(C)c(=O)oc2c1)Cc1ccccc1 |  | 9500 |  | 750 | 7800 |  | 940 |  |  |  | 
CN(Cc1ccc(COc2ccc3ccc(=O)oc3c2)cc1)Cc1cccc(Cl)c1 |  |  |  | 590 | 2700 |  | 1200 | 12 |  |  | 
Cc1cc(=O)oc2cc(OCc3ccc(CN(C)Cc4ccc(C#N)cc4)cc3)ccc12 | 8500 |  | 39 | 3300 | 410 |  |  | 10 | 29 | 39 | 
Cc1cc2ccc(OCc3ccc(CN(C)Cc4ccc(C#N)cc4)cc3)cc2oc1=O |  |  | 17 | 7000 | 1700 |  |  | 15 | 16 | 11 | 
Cc1c(C)c2ccc(OCc3ccc(CN(C)Cc4cccc(Cl)c4)cc3)cc2oc1=O |  |  |  | 660 | 3400 |  |  | 7 | 48 |  | 
COc1cccc(CN(C)Cc2cccc(COc3ccc4ccc(=O)oc4c3)c2)c1 |  |  |  | 6600 | 2500 |  | 880 | 14 |  |  | 
